Data from PMC4877593, “Design and Synthesis of Potent in Vitro and in Vivo Anticancer Agents Based on 1-(3′,4′,5′-Trimethoxyphenyl)-2-Aryl-1H-Imidazole” (Scientific Reports, 2016).

Tests used:
[1] = system: HeLa; assay: Mitochondrial membrane potential (JC-1), HeLa; type: cell-based, human; details: HeLa, 50, 100 and 250 nM; time- and concentration-dependent
Description: (§1) Mitochondria play an essential role in the propagation of apoptosis. It is well established that, at an early stage, apoptotic stimuli alter the mitochondrial transmembrane potential (Δψmt). Δψmt was monitored by the fluorescence of the dye JC-1. […] This occurred in a time- and concentration-dependent fashion, and, in both cell lines, a significant increase was observed after a 6 h treatment. The disruption of Δψmt is associated with the appearance of annexin-V positivity in the treated cells when they are in an early apoptotic stage. […] Cells were treated with the indicated concentration of compound for 24 or 48 h and then stained with the fluorescent probe JC-1 for analysis of mitochondrial potential or H2-DCFDA for the evaluation of ROS levels. Cells were then analyzed by flow cytometry as described in the experimental section.

[2] = system: HeLa; assay: ROS production (H2-DCFDA), HeLa; type: cell-based, human; details: in comparison with control cells
Description: Figure 7 Assessment of mitochondrial membrane potential (Δψmt) and production of ROS after treatment of HeLa (Panels A,B) or Jurkat (Panels C,D) cells with compound 4o. Cells were treated with the indicated concentration of compound for 24 or 48 h and then stained with the fluorescent probe JC-1 for analysis of mitochondrial potential or H2-DCFDA for the evaluation of ROS levels. Cells were then analyzed by flow cytometry as described in the experimental section.
It is also well known that dissipation of mitochondrial potential is associated with mitochondrial production of ROS[38]. Superoxide anion is produced by mitochondria due to a shift from the normal 4-electron reduction of O2 to a 1-electron reduction when cytochrome c is released from mitochondria upon apoptosis. Therefore, we investigated whether ROS production increased after treatment with compound 4o. We utilized the dye 2,7-dichlorodihydrofluorescein diacetate (H2-DCFDA), which is oxidized to the fluorescent compound dichlorofluorescein (DCF) upon ROS induction.

[3] = system: A549; assay: In vitro antiproliferative activity (MTT), A549; type: cell-based; details: Homo sapiens, tumor cell proliferation, 72 h, mean ± SE
Description: Human T-cell leukemia (CCRF-CEM and Jurkat) and human B-cell leukemia (SEM) cells were grown in RPMI-1640 medium (Gibco, Milano, Italy). Breast adenocarcinoma (MCF7), human cervix carcinoma (HeLa), and human colon adenocarcinoma (HT-29) cells were grown in DMEM medium (Gibco, Milano, Italy), all supplemented with 115 units/mL penicillin G (Gibco, Milano, Italy), 115 μg/mL streptomycin (Invitrogen, Milano, Italy), and 10% fetal bovine serum (Invitrogen, Milano, Italy). Stock solutions (10 mM) of the different compounds were obtained by dissolving them in dimethyl sulfoxide (DMSO). Individual wells of a 96-well tissue culture microtiter plate were inoculated with 100 μL of complete medium containing 8 × 10^3 cells. The plates were incubated at 37 °C in a humidified 5% CO2 incubator for 18 h prior to the experiments. After medium removal, 100 μL of fresh medium containing the test compound at different concentrations was added to each well in triplicate and incubated at 37 °C for 72 h. The percentage of DMSO in the medium never exceeded 0.25%. This was also the maximum DMSO concentration in all cell-based assays described below. […] Different concentrations of the test compounds were added, and viability was determined 72 h later by the MTT test. For cytotoxicity evaluations in resting PBL cultures, non-adherent cells were resuspended (5 × 10^5 cells/mL) and treated for 72 h with the test compounds, as described above.

[4] = system: Jurkat; assay: Mitochondrial membrane potential (JC-1), Jurkat; type: cell-based, human; details: Jurkat, 50, 100 and 250 nM; time- and concentration-dependent
Description: as §1

## CCOc1ccc(-c2nccn2-c2cc(OC)c(OC)c(OC)c2)cc1Cl [Compound 4o, 2-(3′-Chloro-4′-ethoxyphenyl)-1-(3′,4′,5′-trimethoxyphenyl)-1H-imidazole]
[1]
  percentage of cells with low Δψmt (JC-1): remarkable increase
[2]
  ROS production (H2-DCFDA): induced the production of large amounts of ROS
[3]
  IC50: 0.57 ± 0.17 nM
[4]
  percentage of cells with low Δψmt (JC-1): remarkable increase
